Measured values: patent publication US12485089B1, “Adhering lozenge with high amount of sparsely soluble active ingredient” (Quest Products, LLC, priority 2025, dated 2025)

Experiment: Time to complete dissolution of compressed tablets of bulking agents/compression binders in water
Assay type: physicochemical
Conditions: 750 mg tablet, 12 mm diameter, pressed at 32 kN, 1.5 L water in 2 L beaker, room temperature (69° F.)
Source text: To compare the speed of dissolution of any ingredients acting as a binder and/or bulking agent to the speed of dissolution of isomalt, a tablet can be formed of each and the time of dissolution for each can be measured. As used herein, the term “rate of dissolution” when comparing one or more binder and bulking agent ingredients to isomalt refers to the following procedure. The tablets should have the same diameter, shape, and weight and should be prepared by pressing with the same compression force (e.g., 32 kN) using a tablet press. Two equal beakers (e.g., 2 L) each containing an equal amount of distilled water (e.g., 1.5 L) and each at the same room temperature (i.e., at 69° F.) and atmospheric pressure are prepared. One tablet containing isomalt (commercially available FCC or USP grade isomalt particles) is placed in one of the beakers of water. The other tablet formed of the test binder and/or bulking agent are placed in the other of the beakers of water. The two beakers are then visually observed to determine which of the tablets dissolves completely first.
To identify suitable bulking agents and compression binders that dissolve quickly enough to allow suitable release of the preferred amount of antacid particles having low solubility in saliva, tablets of equal diameter (12 mm) and a weight of 750 mg±4 mg were made with commercially available particles of the bulking agents and/or compression binders listed in the table below, each compressed using a tablet press by placing the ingredients in a die and pressing with an equal pressure of 32 kN±3 kN to form the tablets. The tablets were simultaneously placed in equal size beakers (2 L) each containing an equal amount of water (1.5 L±15 mL) at room temperature (69° F.) and the time to complete dissolution was measured for each tablet. The dissolution times are shown below.

Molecule | Dissolution time
OC[C@@H](O)[C@@H](O)[C@H](O)[C@@H](O)CO [Sorbitol] | 20 min
OC[C@@H](O)[C@@H](O)[C@H](O)[C@H](O)CO [Mannitol] | 50 min
Isomalt | 38 min
OC[C@@H](O)[C@@H](O[C@H]1O[C@H](CO)[C@@H](O)[C@H](O)[C@H]1O)[C@H](O)[C@@H](O)CO [Maltitol] | 29 min
